According to patent publication US20200096524A1, “PLASMA AND LIVER LIPID SPECIES AS BIOMARKERS OF FATTY LIVER” (École Polytechnique Fédérale de Lausanne (EPFL), priority 2017, published 2020):

Key:
[1] = tested on: C57BL/6J mice fed HFHS diet (fatty liver); test: high-fat high-sucrose (HFHS) diet induced NAFLD mouse model, therapeutic NR supplementation, liver lipidomics; type: in vivo
Source text: (A-C) C57BL/6J mice: (A) Schematic illustration of the three experimental groups used for validation of the NAFLD signatures; mice on CD (green), mice on HFHS diet from 7-25 weeks (grey), mice starting HFHS diet at 7 weeks and treated with nicotinamide riboside (NR) 9 weeks after the start of HFHS diet till the end of the study (for 9 weeks—therapeutic intervention, magenta). (B) Liver total TAG concentration (normalized to liver weight). […] (D-E) Human subjects: (D) PCA of 55 TAG species measured in human plasma from healthy, steatosis and NASH patients. (E) Plasma total TAG levels in human samples. (F-G) BXDs: (F) Correlation matrix showing the Pearson correlation of Atgl mRNA expression in four different metabolic tissues with the pro- and anti-NAFLD TAG signatures in plasma (left) and liver (right) for both diets. (G) Gene ontology biological processes (GO BP) associated with NAFLD TAG signatures. […] Red and blue cells represent the enriched pathways with the positively (scale bar: log 10 p-value) and negatively (scale bar: −log 10 p-value) correlated liver transcripts respectively. For B and E differences in mean TAG levels were compared using two-sample t tests. *p<0.05, **p<0.01, ***p<0.001.
(A) Levels of pro- and anti-NAFLD signatures in C57BL/6J mice fed on CD, high-fat high-sucrose-diet (HFHS) and HFHS diet supplemented with NR, 9 weeks after the initiation of HFHS diet (HFHS+NR). (B) Pearson correlation matrix of the pro- and anti-NAFLD signatures with NAFLD readouts including the NAS score (NAFLD activity score) and liver NAD+ levels. (C) Levels of plasma NAFLD signatures in human subjects with various degrees of NAFLD. (D) Pearson correlation matrix of the NAFLD signatures with NAFLD readouts in human subjects. (E) Pearson correlation of Atgl expression in subcutaneous WAT with pro- and anti-NAFLD plasma TAG signatures in BXD strains. For mice: n=6-9 per group. For human subjects: n=12, healthy; n=7, steatosis; n=14, early stage NASH; n=11, advanced stage NASH. Differences in mean TAG species were compared using two-sample t tests. *p<0.05, **p<0.01, ***p<0.001.
(A) Correlation diagram (corrgram) showing diet-independent association of lipid species with liver mass. […] Note that the CLs—CL(LOOPo), CL(LLPoP) and CL(OOOP)—are shown in the figure with an additional CL species because the two are isobaric and inseparable chromatographically. (F) Corrgram showing negative correlation of obesity and NAFLD traits with healthy CL species and positive correlation with unhealthy CL species.
It was then tested the relevance of these lipids as signatures of fatty liver in a different mouse model of NAFLD (induced by high-fat high-sucrose (HFHS) diet) and tested whether a NAFLD lowering therapeutic intervention, i.e. nicotinamide adenine dinucleotide (NAD^+) precursor, nicotinamide riboside (NR), impacts these lipid markers. As such, the liver lipids were compared of mice fed CD or HFHS diet for 18 weeks, or mice that were fed HFHS diet supplemented with NR 9 weeks after the start of HFHS diet when they had already developed NAFLD (a therapeutic intervention, HFHS+NR) (FIG. 11A). […] Of all the TAG species measured, only 53% were increased in HFHS cohort while 33% were decreased and 14% unchanged (data not shown). […] Importantly, the pro-NAFLD lipids correlated positively, whereas the anti-NAFLD lipids correlated negatively with clinical NAFLD readouts (FIG. 12B).
It was next tested whether this change in the profile of nine CL species is a general phenomenon in other dietary-induced models of hepatic steatosis and mitochondrial dysfunction and if the profile can be reverted by ameliorating hepato-steatosis via enhancing mitochondrial function. It has been previously shown that nicotinamide riboside (NR) treatment ameliorates high-fat high-sucrose (HFHS) diet induced fatty liver disease by boosting nicotinamide adenine dinucleotide (NAD+) levels and thereby enhancing mitochondrial function. […]

[2] = tested on: high-fat high-sucrose (HFHS) diet induced fatty liver disease; settings: previously shown; by boosting NAD+ levels and enhancing mitochondrial function; cited from earlier work

In the case of NC(=O)c1ccc[n+]([C@@H]2O[C@H](CO)[C@@H](O)[C@H]2O)c1 [NR, nicotinamide riboside], the “liver anti-NAFLD lipids (TAGs 52:5, 52:4, 54:6)” value ([1]; C57BL/6J mice, HFHS+NR vs HFHS, FIG. 12A) is reported as “increased the anti-NAFLD lipids only to a slight extent”, the “liver levels of healthy CLs (CL(LLLL), MLCL(LLL))” value ([1]; C57BL/6J mice, HFHS+NR vs HFHS, FIG. 13D) is reported as “increased” and the “liver levels of unhealthy CLs (MLCL(LOO), MLCL(LLO), CL(LOOPo), CL(LLPoP), CL(LOOO), CL(OOOP))” value ([1]; C57BL/6J mice, HFHS+NR vs HFHS, FIG. 13E) is reported as “decreased”. The “liver total TAG concentration” value ([1]; C57BL/6J mice, HFHS+NR vs HFHS, NR added 9 weeks after start of HFHS diet, 18 weeks total, FIG. 11B) was “decreased”, the “liver pro-NAFLD lipids (TAGs 52:2, 54:3, 56:3, 50:2)” value ([1]; C57BL/6J mice, HFHS+NR vs HFHS, lowered: TAGs 54:3, 56:3, 50:2, FIG. 12A) was “significantly lowered three of the four pro-NAFLD lipids” and the “liver NAD+ levels” value ([1]; steatotic livers of HFHS mice, after NR treatment, FIG. 12B) was “replenished”. For the same molecule, the “HFHS diet induced fatty liver disease” value [2] was “ameliorates”.
